*1 amine or outer side, *2 acyl side, *3 side chain or, on linkers, in order; H or OH if unused. Where a SMILES comes first, the peptide text is derived from it. Bridges are numbered along the chain shown (N, C = ends). CH2CH2 = C(C[*:2])[*:1]
What was measured:
GST-Shh = target: T1, GST-Shh (Homo sapiens, UniProt Q15465); assay: Competition assay: inhibition of FLAG-HL2-m5 binding to GST-Shh; details: 10 μM robotnikinin and 400 nM FLAG-HL2-m5; read-out: % inhibition of FLAG-HL2-m5 binding in the presence of GST-Shh
T1 construct: poly-histidine (N); made in house; host or cells: E. coli BL21(DE3), vector pET42b
Experimental: (§1) The immunoassay described above can be adapted to serve as a competition assay. In this case, a fixed amount of the labeled peptide is incubated with the immobilized Hedgehog protein in the presence of a test compound (e.g., another cyclic peptide or a small-molecule compound). The test molecule competes with the cyclic peptide for binding to the immobilized Hedgehog protein. The amount of bound peptide is quantified using the colorimetric assay described above and the extent of inhibition in the presence of the test compound is compared to that in the absence of it. From the resulting dose-response curves, a IC50 value for the test compound can be obtained. Using this assay and the cyclic compounds provided herein, the Hedgehog inhibitory activity of a test molecule can be evaluated. […]
(§2) While Shh is the most abundant isoform among Hedgehog proteins, paracrine/autocrine Hedgehog signaling in normal and cancer cells is also mediated by the Indian (Ihh) and Desert (Dhh) isoforms. […] Since the Hh isoform selectivity of robotnikinin had not previously investigated, this property was examined by means of a competition assay, whereby inhibition of FLAG-HL2-m5 binding to plate-immobilized GST-Shh, GST-Ihh, or GST-Dhh is measured via the HRP-conjugated anti-FLAG antibody.
(§3) Competition assay. […] Mean values and standard deviations were calculated from experiments performed in triplicate.

GST-Ihh = target: T2, GST-Ihh (Homo sapiens, UniProt Q14623); assay: Competition assay: inhibition of FLAG-HL2-m5 binding to GST-Ihh; details: 10 μM robotnikinin and 400 nM FLAG-HL2-m5
T2 construct: poly-histidine (N); made in house; host or cells: E. coli BL21(DE3), vector pET42b
Experimental: as §1, §2, §3

GST-Dhh = target: T3, GST-Dhh (Homo sapiens, UniProt O43323); assay: Competition assay: inhibition of FLAG-HL2-m5 binding to GST-Dhh; details: 10 μM robotnikinin and 400 nM FLAG-HL2-m5
T3 construct: poly-histidine (N); made in house; host or cells: E. coli BL21(DE3), vector pET42b
Experimental: as §1, §2, §3

[1] = system: Hedgehog pathway activation in cells; details: similar cell-based assay; read-out: IC50, blocking Hedgehog pathway activation in cells; cited from earlier work
[2] = system: Shh-mediated Hedgehog pathway signaling in NIH3T3 cells; assay: Gli-reporter dual luciferase assay in Shh-N-stimulated NIH-3T3 cells; type: cell-based, mouse; details: 4 nM Shh-N, 24 hours; read-out: half-maximal inhibitory concentration (IC50), suppression of luminescence signal
Source text: The ability of the compounds provided herein to inhibit ligand-induced activation of the Hedgehog pathway in a cell can be assessed by means of a cell based assay. In an exemplary procedure, a suitable reporter plasmid is introduced in a Hedgehog responsive mammalian cell. Typically, the reporter plasmid contains a reporter gene encoding (e.g., a gene encoding for firefly luciferase) under a Gli-controlled promoter, thereby providing a reporter gene that is responsive to the activity of the Gli transcription factors. […] The reporter cells are incubated with the Hedgehog protein in the presence and in the absence of the cyclic peptide. The extent of Hedgehog pathway suppression can be determined based on relative activity of the luciferase reporter enzyme, which in turn can be determined by measuring the luminescence signal after addition of a luminogenic substrate of the luciferase enzyme.
To this end, we utilized a cell-based luciferase reporter assay, (Chen, Taipale et al. 2002) in which mouse embryo fibroblasts (NIH3T3) are transfected with vectors encoding for a Firefly luciferase (FF) gene under a Gli-controlled promoter and a Renilla luciferase (Ren) gene under a constitutive promoter. Hedgehog pathway suppression is measured based on the decrease in Firefly/Renilla luminescence ratio in the presence of the inhibitor. […] (Chen, Taipale et al. 2002)
Gli-reporter Assay. NIH-3T3 cells were passaged twice and then plated in 24-well culture dishes at 5×10^5 cells/well in DMEM containing 10% FBS and 1% penicillin/streptomycin. After 24 hours, the cells were transfected (TransIT-2020) with a mixture of a firefly luciferase reporter construct under the control of a Gli1 inducible promoter and a Renilla luciferase reporter construct under a constitutive promoter (40:1) (Cignal GLI Reporter Luciferase Kit, Qiagen). Cells were allowed to reach confluency, at which point the media was changed to Opti-MEM containing 1% FBS and added with 4 nM Shh-N(R&D Systems, Minneapolis, Minn.) in sterile PBS buffer. Synthetic HL2-lin and HL2-m5 were added at the same time at varying concentration (0.01-30 uM), and control cells were prepared by adding vehicle only (1% DMSO). Purmorphamine-treated cells were prepared by adding 5 μM purmorphamine to wells containing 10 μM HL2-m5. After growth for 24 hours at 37° C. in a humidified chamber, the cells were harvested and analyzed for Firefly and Renilla luciferase activity using a Tecan Spark-20 plate reader and a DLR kit (Promega) according to the manufacturer's instructions. Luminescence values were normalized to those of the Shh pathway activated control cells. Mean values and standard deviations were calculated from experiments performed at least in duplicate.

[3] = system: Hedgehog pathway target genes Gli, Gi2 and Ptch1; assay: Gene transcription analyses by real-time PCR in Shh-N-stimulated NIH-3T3 cells; type: cell-based, mouse; details: HL2-m5 at 10 μM
Experimental: The ability of the compounds to suppress a transcriptional response associated with activation of the Hedgehog pathway can be assessed by incubating a Hedgehog responsive mammalian cell with the Hedgehog ligand in the presence and in the absence of the cyclic peptide inhibitor. The messenger RNA (mRNA) is extracted and a DNA the mRNA (cDNA) is produced via reverse transcription. The transcriptional level of canonical Hedgehog target genes such as Gli1 and Ptch1 is then determined via real-time PCR and/or via PCR followed by DNA gel electrophoresis. From the resulting dose-response curves, the activity of the cyclic peptide toward suppressing Hedgehog induced transcriptional activity can be established and quantitatively measured by means of IC50 values.
To further validate HL2-m5 as a Hedgehog pathway antagonist, the effect of this compound on the transcriptional activity of two canonical target genes of the pathway, Gi and Ptch1 (FIG. 1) was examined via real-time PCR. […]
Gene transcription analyses. […] The relative amounts of Gi, Gi2, and Ptch1 mRNA transcripts were determined by real-time PCR (Bio-Rad CFX thermocycler) using the primers listed in Table S1 and SYBR green TAQ reagent (Bio-Rad) according to the manufacture's protocol. […] Mean values and standard deviations were calculated from measurements performed in quadruplicate.

NIH-3T3 cells = assay: Cell morphology, growth behavior and titer in the presence of the peptide; type: cell-based, mouse; details: highest concentration range applied
[4] = system: GST-Shh, GST-Ihh, and GST-Dhh; assay: Hedgehog analog selectivity: relative binding at fixed peptide concentration; set-up: species or system human; details: peptide at fixed concentration of 0.5-1 μM, normalized to highest response
Experimental: FIG. 14. Hh analog selectivity for linear HHIP L2-derived peptide (HL2-pep) and representative cyclic peptide inhibitors. The data relative to the peptides were derived from direct binding experiments with immobilized Hedgehog proteins (i.e., GST-Shh, GST-Ihh, and GST-Dhh), biotinylated peptides (i.e., Biot-HL2-pep, Biot-HL2-m1, Biot-HL2-m2, Biot-HL2-m3, Biot-HL2-m4, Biot-HL2-m4), and HRP-conjugated streptavidin. The data relative to robotnikinin were derived from competition experiments ([…]+400 nM HL2-m5). For each compound, the response values were normalized to the highest binding response measured across the three Hedgehog analogs.
Hedgehog analog selectivity. KD values for FLAG-HL2-m5 binding to Ihh and Dhh were determined using the colorimetric immunoassay described earlier but using GST-Ihh and GST-Dhh-coated plates, respectively. The peptide relative binding affinity for the three isoforms of Hedgehog was determined using the same assay and peptide solutions at a fixed concentration of 0.5-1 μM. In this case, binding responses were subtracted against the blank (no peptide sample) and normalized to the highest value measured across the three Hh isoforms. Mean values and standard deviations were calculated from experiments performed at least in triplicate.

T1 sequence (Q15465 24-462): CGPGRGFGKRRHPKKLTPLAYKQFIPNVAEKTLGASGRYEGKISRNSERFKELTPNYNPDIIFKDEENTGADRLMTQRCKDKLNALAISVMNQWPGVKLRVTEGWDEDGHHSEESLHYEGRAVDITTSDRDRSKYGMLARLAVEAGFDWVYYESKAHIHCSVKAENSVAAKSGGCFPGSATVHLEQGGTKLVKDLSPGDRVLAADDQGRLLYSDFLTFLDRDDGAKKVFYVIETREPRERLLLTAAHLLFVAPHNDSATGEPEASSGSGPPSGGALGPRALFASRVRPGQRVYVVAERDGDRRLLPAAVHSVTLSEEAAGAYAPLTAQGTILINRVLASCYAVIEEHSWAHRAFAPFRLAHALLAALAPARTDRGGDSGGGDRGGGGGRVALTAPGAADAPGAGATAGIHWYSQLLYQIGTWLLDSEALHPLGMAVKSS
T2 sequence (Q14623 28-411): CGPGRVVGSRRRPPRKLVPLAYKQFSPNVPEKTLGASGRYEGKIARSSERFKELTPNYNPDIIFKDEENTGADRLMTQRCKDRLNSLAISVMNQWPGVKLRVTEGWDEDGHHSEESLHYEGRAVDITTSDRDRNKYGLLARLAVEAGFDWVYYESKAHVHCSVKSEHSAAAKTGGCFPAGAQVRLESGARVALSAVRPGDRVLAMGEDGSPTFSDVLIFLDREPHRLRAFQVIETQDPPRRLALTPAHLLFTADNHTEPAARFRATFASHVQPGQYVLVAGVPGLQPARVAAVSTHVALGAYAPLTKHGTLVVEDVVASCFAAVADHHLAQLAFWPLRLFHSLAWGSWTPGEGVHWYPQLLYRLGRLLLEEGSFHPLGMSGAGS

Row | Compound | inhibition at 10 µM (GST-Shh) [%] | affinity toward Ihh relative to Shh (GST-Ihh) | affinity toward Dhh relative to Shh (GST-Dhh) | IC50 [1] [µM] | IC50 [2] [nM] | mRNA level for the transcription factor Gli2 ([3]; ShhN-stimulated cells) | reduction of the mRNA levels of Gi and Ptch1 ([3]; relative to compound-untreated ShhN-stimulated cells) | cytotoxicity (cell morphology, growth behavior and titer) (NIH-3T3 cells) | Hedgehog analog selectivity profile [4]
1 | O=C(C[C@@H]1C/C=C/CCC(=O)O[C@H](c2ccccc2)CNC1=O)NCc1ccc(Cl)cc1 [robotnikinin] | 34 | significantly lower affinity | significantly lower affinity | ~15 |  |  |  |  | 
2 | CSCC[C@@H]1NC(=O)[C@H](C)NC(=O)[C@H](CCC(=O)O)NC(=O)[C@@H](NC(=O)[C@H](Cc2c[nH]c3ccccc23)NC(=O)[C@H](CO)NC(=O)[C@H](CC(C)C)NC(=O)[C@@H](NC(C)=O)[C@@H](C)O)Cc2ccc(cc2)OCCSC[C@@H](C(=O)N[C@H](C(=O)N[C@@H](CC(=O)O)C(N)=O)[C@@H](C)O)NC(=O)[C@H](CCSC)NC(=O)[C@H](CC(=O)O)NC1=O [HL2-m5] (Ac-TLSWYEAMDMCTD-NH2; linker 5-11 via CH2CH2) |  |  |  |  | 250 | suppresses | 75-85% | lack of cytotoxicity | nearly identical activity toward Shh and Ihh

— patent publication US20210115087A1, “CYCLIC PEPTIDE INHIBITORS OF HEDGEHOG PROTEINS” (University of Rochester, priority 2016, published 2021)
